The text below walks through data of patent publication US20230285570A1, “THERAPEUTICALLY USEFUL CURE-PRO MOLECULES FOR E3 LIGASE MEDIATED DEGRADATION OF PROTEINS, AND METHODS OF MAKING AND USING THEM” (CORNELL UNIVERSITY, priority 2020, published 2023).

Assay type in all cases: cell-based
The target of test [1] is T1, BRD4 (Homo sapiens, UniProt O60885). The test can be described thus: CURE-PRO-mediated BRD4 degradation in HeLa cells, Western blot. Further details: endogenous in cells; host or cells: HeLa. To be noted: 24 h; for BRD4 expression: BRD monomer alone, HeLa, 1 nM-1 μM; for BRD4 degradation: 10 μM each. Put shortly:
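HeLa cells (2.5×10^6) treated 24 h with DMSO-solubilized compounds, degrader pairs combined 1:1, at 1 nM-1 μM, 1-10 μM, 10 μM or 10 and 100 μM each depending on series. RIPA lysates (10-20 μg protein) run on SDS-PAGE and immunoblotted for BRD4 with ECL detection.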
A general note: A western blot detects proteins with antibodies after separation by electrophoresis.

Test [2] has as its target T1, BRD4. The test can be described thus: Summary of BRD4 degradation by CURE-PRO pairs, estimated from Western Blot or WES. Further details: endogenous in cells. To be noted: for Degradation of BRD4, combination with CRBN ligand 8046: Table 1, aryl-boronic acid BRD4 ligand + 8046; for Degradation of BRD4, combination with CRBN ligand 8066: Table 1, aryl-boronic acid BRD4 ligand + 8066; for Degradation of BRD4, combination with MDM2 ligand 8314: Table 2, aryl-boronic acid BRD4 ligand + 8314; for Degradation of BRD4, combination with VHL ligand 8305: Table 3, aryl-boronic acid BRD4 ligand + 8305; for Degradation of BRD4, combination with CRBN ligand 8047: Table 1, aryl-boronic acid BRD4 ligand + 8047. In a few lines: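 Degradation read-out from immunoblot with ECL, or WES capillary electrophoresis with HRP detection, of RIPA lysates. Cells (Namalwa, Ramos, HeLa, MCF7, HT29 or HCT116) were exposed to DMSO-solubilized compounds for 24 h; a check mark marks 30% to 70% or higher degradation.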

Test [3] concerns the target T1, BRD4. The test can be described thus: CURE-PRO-mediated BRD4 degradation in HCT116 cells, WES (ProteinSimple). To be noted: 1 μM-10 μM each. The arrangement: endogenous in cells. The procedure: All cell lines were purchased from ATCC or DSMZ and grown at 37° C. with 5% CO2. Human HeLa cells were cultured in complete growth medium (Dulbecco's modified Eagle's medium (DMEM) supplemented with 10% FBS); MCF7 cells were cultured in complete growth medium (Dulbecco's modified Eagle's medium (DMEM) supplemented with 10% FBS and 0.01 mg/ml human recombinant insulin (Sigma Aldrich); Namalwa and Ramos cells were cultured in complete growth medium (RPMI 1640 medium supplemented with 10% FBS); HCT116 and HT29 cells were cultured in complete growth medium (McCoy's 5a Medium supplemented with 10% FBS). For cellular degradation of BRD4 studies cells were seeded in a 12-well plate at 70-80% confluency, allowed to attach overnight, and incubated with the indicated compounds for the indicated time. When indicated, a 15-minute pretreatment with 10 μM pomalidomide, 10 μM VHL298, 10 μM Nutlin3a, 1 μM MG-132 or 1 μM Carfilzomib was performed before the addition of CURE-PROs. For washout studies, after CURE-PRO treatment, media was aspirated and incubated with complete medium for the indicated time before lysis.
WES Simple analysis was performed on WES system (ProteinSimple-Biotechne) according to the manufacturer's instructions. Total protein concentrations of cell lysates were determined by the Pierce BCA kit (Thermo Fisher). 3 μL of 0.3 μg/μL of the protein lysate was loaded onto a 12- to 230-kDa WES assay plate (ProteinSimple) where 300 nL sample was withdrawn through a capillary, subjected to electrophoretic separation of proteins by size, and followed by the simultaneous, HRP-based detection of proteins using the Anti-Rabbit Detection Module (Proteinsimple: #DM-001). The electropherograms were checked then the automatic peak detection was manually corrected if it was required.
HCT116 cells (3×10^6) were treated for 24 hours with the compounds solubilized in DMSO. Compounds were added at 1 μM-10 μM each. Standardized protein samples were electrophoresed and imaged as described in the WES ProteinSimple section above. FIGS. 59, 60, and 61 depict the concentration-dependence of CURE-PRO-mediated BRD4 degradation using MDM2 ligands.
HCT116 cells (3×10^6) were treated for 24 hours with the compounds solubilized in DMSO. Compounds were added at 1 μM-10 μM each. Standardized protein samples were electrophoresed and imaged as described in the WES ProteinSimple section above. FIGS. 62 and 63 depict the concentration-dependence of CURE-PRO-mediated BRD4 degradation using MDM2 ligands.
HCT116 cells (3×10^6) were treated for 24 hours with the compounds solubilized in DMSO. CURE-PRO monomers were added at 10 μM each and the proteasomal inhibitors at 1 μM. Standardized protein samples were electrophoresed and imaged as described in the WES ProteinSimple section above. FIG. 68 depicts the dependence of the proteasome for CURE-PRO-mediated BRD4 degradation.

Another test concerns MV-4-11 cells. The test can be described thus: CellTiter-Glo cell viability, MV-4-11 cells. To be noted: for loss of cellular viability (toxicity) versus monomers alone: cotreated 1:1 with each of CRBN ligands 8046, 8047 and 8066, MV-4-11, 72 h, 10 nM-100 μM. The procedure: CellTiter-Glo® 2.0 Cell Viability Assay (Promega) was carried out following the manufacturer's recommendations. Cells were seeded at a density of 1000 cells/well in a white 96 well plates (Corning, #3917) in a total volume of 100 μl with respective monomers, combinations of BRD ligands together with E3 ligase ligands or vehicle control treatment. After a 72 h incubation, 100 ul of the CellTiter-Glo® substrate was added per well and luminescence was read on a Spectramax M5 (Molecular Devices). Dose-response curves were generated using Graphpad Prism software.
MV-4-11 cells (5×10^4) were treated for 24 hours with the sample compounds solubilized in DMSO. The compounds were added at 1 nM-100 μM each. Cellular viability was determined using the CellTiter-Glo® Luminescent Cell Viability Assay (Promega) described above. FIGS. 19-22 depict the CURE-PRO-mediated loss of cellular viability for BRD monomers (JQ1 derivatives comprising of catechol linkers), and CRBN ligand, 8049 (pomalidomide derivatives comprising boronic acid linkers) combined in a 1:1 ratio.
MV-4-11 cells (1×10^4) were treated for 72 hours with the compounds solubilized in DMSO. Compounds were added at 10 nM-100 μM each. Cellular viability was determined using the CellTiter-Glo® Luminescent Cell Viability Assay (Promega) described above. FIGS. 47-54 depict the CURE-PRO-mediated loss of cellular viability for BRD monomers (JQ1 derivatives comprising of boronic acid linkers), and CRBN ligands, 8046, 8047 and 8066 (pomalidomide derivatives comprising diol linkers) combined in a 1:1 ratio.
(In general: Cellular ATP, detected with luciferase, serves as a proxy for viable cell number.)

Where [4] appears, read: co-treated 1:1 with CRBN ligand 8046, HeLa.
The mark [5] stands for this setting: co-treated 1:1 with CRBN ligand 8066, HeLa.
Where [6] appears, read: 1:1 with MDM2 ligand 8313, HCT116, 24 h.
[7] abbreviates: 1:1 with MDM2 ligand 8314, HCT116, 24 h.

“Also recorded” adds a separate entry of the source. Some results are limits rather than exact numbers.

Take `COc1ccc2c(c1)C(c1ccc(Cl)cc1)=N[C@@H](CC(=O)NCCCCCNC(=O)c1cccc(B(O)O)c1)c1nnc(C)n1-2` [BRD-E8]: on BRD4 [1] (1:1 with CRBN ligand 8046, HeLa, 1 nM-1 μM each), the “concentration-dependent BRD4 degradation” value was “Degradation is observed at 100 nM and 1 μM”. Moreover, the BRD4 expression result at BRD4 [1] is listed as “no change in expression is observed”. For the same compound, the BRD4 degradation result at BRD4 [1] (setting [4]) is given as “causes degradation of BRD4; also recorded: Degradation is noted”; at BRD4 [1] (setting [5]), “causes degradation of BRD4; also recorded: Degradation is noted”; on BRD4 [3] (setting [6]), “had no effect on BRD4 protein levels”; at BRD4 [3] (setting [7]) it was “caused partial loss of the BRD4 protein; also recorded: Degradation is observed”. In addition, the “Degradation of BRD4, combination with CRBN ligand 8046” value at BRD4 [2] was “√ (A black check mark indicates efficacy of 30% to 70% or higher protein degradation)”. In addition, the “Degradation of BRD4, combination with CRBN ligand 8066” value at BRD4 [2] is given as “√ (A black check mark indicates efficacy of 30% to 70% or higher protein degradation)”. Further, the “Degradation of BRD4, combination with MDM2 ligand 8314” value (shortened to “Degradation … with MDM2 ligand 8314”) on BRD4 [2] is given as “√ (A black check mark indicates efficacy of 30% to 70% or higher protein degradation)”.

With `COc1ccc2c(c1)C(c1ccc(Cl)cc1)=N[C@@H](CC(=O)NCCCCCNC(=O)c1cccc(O)c1O)c1nnc(C)n1-2` [BRD-N8, N-(5-(2-((4S)-6-(4-chlorophenyl)-8-methoxy-1-methyl-4H-benzo[f][1,2,4]triazolo[4,3-a][1,4]diazepin-4-yl)acetamido)pentyl)-2,3-dihydroxybenzamide], the “loss of cellular viability (toxicity)” value in the test with MV-4-11 cells (co-dosed 1:1 with CRBN ligand 8049, MV-4-11, 24 h, 1 nM-100 μM each) is “concentration-dependent loss in cellular viability; also recorded: increased toxicity”.

Regarding `CCNC(=O)C[C@@H]1N=C(c2ccc(Cl)cc2)c2cc(OCCCCCCCNC(=O)c3ccc(B(O)O)cc3)ccc2-n2c(C)nnc21` [BRD-E78], on BRD4 [2], the “Degradation of BRD4, combination with VHL ligand 8305” value is recorded as “√ (A black check mark indicates efficacy of 30% to 70% or higher protein degradation)”. In the test with MV-4-11 cells, the “loss of cellular viability (toxicity) versus monomers alone” value is “reduced viability; also recorded: increased toxicity”.

In the case of `CCNC(=O)C[C@@H]1N=C(c2ccc(Cl)cc2)c2cc(OCCCCCCNC(=O)c3ccc(B(O)O)cc3)ccc2-n2c(C)nnc21` [BRD-E79, (4-((6-(((4S)-6-(4-chlorophenyl)-4-(2-(ethylamino)-2-oxoethyl)-1-methyl-4H-benzo[f][1,2,4]triazolo[4,3-a][1,4]diazepin-8-yl)oxy)hexyl)carbamoyl)phenyl)boronic acid], the BRD4 degradation result at BRD4 [1] (setting [4]) is “causes degradation of BRD4; also recorded: Degradation is noted”; at BRD4 [1] (setting [5]) it was “causes degradation of BRD4; also recorded: Degradation is noted”; on BRD4 [3] (setting [6]), “caused BRD4 protein degradation at 1 and 10 μM; also recorded: Degradation of BRD4 is observed”; at BRD4 [3] (setting [7]), “no protein loss was observed”. Further, the “Degradation of BRD4, combination with CRBN ligand 8046” value on BRD4 [2] was “√ (A black check mark indicates efficacy of 30% to 70% or higher protein degradation)”. On BRD4 [2], the “Degradation of BRD4, combination with CRBN ligand 8047” value (shortened to “Degradation … with CRBN ligand 8047”) is on record as “√ (A black check mark indicates efficacy of 30% to 70% or higher protein degradation)”. In addition, the “Degradation of BRD4, combination with CRBN ligand 8066” value at BRD4 [2] is “√ (A black check mark indicates efficacy of 30% to 70% or higher protein degradation)”. At BRD4 [2] (Table 2, aryl-boronic acid BRD4 ligand + 8313), the “Degradation of BRD4, combination with MDM2 ligand 8313” value is recorded as “√ (A black check mark indicates efficacy of 30% to 70% or higher protein degradation)”.

As to `COc1ccc2c(c1)C(c1ccc(Cl)cc1)=N[C@@H](CC(=O)NCCc1ccc(B(O)O)cc1)c1nnc(C)n1-2` [BRD-E14, (4-(2-(2-((4S)-6-(4-chlorophenyl)-8-methoxy-1-methyl-4H-benzo[f][1,2,4]triazolo[4,3-a][1,4]diazepin-4-yl)acetamido)ethyl)phenyl)boronic acid], at BRD4 [1] (co-treated 1:1 with CRBN ligand 8047, HeLa), the BRD4 degradation entry was “causes degradation of BRD4; also recorded: Degradation is noted”. Moreover, at BRD4 [2], the “Degradation … with CRBN ligand 8047” value is on record as “√ (A black check mark indicates efficacy of 30% to 70% or higher protein degradation)”; the “Degradation … with MDM2 ligand 8314” value was “√ (A black check mark indicates efficacy of 30% to 70% or higher protein degradation)”; the “Degradation of BRD4, combination with VHL ligand 8305” value is recorded as “√ (A black check mark indicates efficacy of 30% to 70% or higher protein degradation)”. At BRD4 [3] (setting [6]), the BRD4 degradation result is recorded as “had no effect on BRD4 protein levels”. Moreover, on BRD4 [3] (setting [7]), the BRD4 degradation entry is “caused partial loss of the BRD4 protein; also recorded: Degradation is observed”.

Consider `COc1ccc2c(c1)C(c1ccc(Cl)cc1)=N[C@@H](CC(=O)Nc1cccc(B(O)O)c1)c1nnc(C)n1-2` [BRD-E73, (3-(2-((4S)-6-(4-chlorophenyl)-8-methoxy-1-methyl-4H-benzo[f][1,2,4]triazolo[4,3-a][1,4]diazepin-4-yl)acetamido)phenyl)boronic acid], for which the “loss of cellular viability (toxicity) versus monomers alone” value with MV-4-11 cells was “reduced viability; also recorded: increased toxicity”.

`CCNC(=O)C[C@@H]1N=C(c2ccc(Cl)cc2)c2cc(OCCNC(=O)c3cccc(B(O)O)c3)ccc2-n2c(C)nnc21` [BRD-E21, (3-((2-(((4S)-6-(4-chlorophenyl)-4-(2-(ethylamino)-2-oxoethyl)-1-methyl-4H-benzo[f][1,2,4]triazolo[4,3-a][1,4]diazepin-8-yl)oxy)ethyl)carbamoyl)phenyl)boronic acid]: the “concentration from which BRD4 degradation is observed” value at BRD4 [1] (1:1 with CRBN ligand 8047, HeLa, 1 nM-1 μM each) is at least 10 nM. Besides, at BRD4 [1], the BRD4 expression entry was “no change in expression is observed”. At BRD4 [2], the “Degradation … with CRBN ligand 8047” value is “√ (A black check mark indicates efficacy of 30% to 70% or higher protein degradation)” and the “Degradation … with MDM2 ligand 8314” value was “√ (A black check mark indicates efficacy of 30% to 70% or higher protein degradation)”. In addition, the BRD4 degradation result at BRD4 [3] (setting [6]) is reported as “had no effect on BRD4 protein levels”. Further, the BRD4 degradation result at BRD4 [3] (setting [7]) is listed as “caused partial loss of the BRD4 protein; also recorded: Degradation is observed”.
